Source: US5362879A, “4-5-diphenyloxazole derivatives as inhibitors of blood platelet aggregation” (Bristol-Myers Squibb Company, priority 1993, dated 1994)
≈ marks a conversion by molar mass, not a printed value.

Columns and labels:
platelet aggregation = details: prior art description; cited from earlier work
human PRP = details: cited from earlier work
[1] = test system: human platelets in platelet-rich-plasma; test: ADP-induced aggregation of human platelets in platelet-rich plasma (Born aggregometer method as modified by Mustard et al.); format: cell-based
Method: Platelet-rich plasma was prepared from human blood drain into syringes containing 1/10 volume of 3.8% sodium citrate. The blood was then subjected to centrifugation for about 10 minutes at 140 g and then the platelet-rich plasma decanted. The test compound was dissolved in DMSO (5 μL) and added to PRP (0.9 mL) 3 minutes prior to the addition of ADP (5.86 μM). The aggregometer method of Born, as modified by Mustard et al., was employed to measure platelet aggregation. Vehicle control trials were performed and compared with the extent of aggregation induced in PRP containing various concentrations of the test compounds. Dose-response curves were thus obtained and IC50 values determined.

Row | Compound | inhibition of platelet aggregation (in words) (platelet aggregation) | IC50 (human PRP vs ADP) (human PRP) [µg/mL] | potency relative to the compound of Formula (ii) (inhibition of ADP-induced platelet aggregation) [1]
1 | O=C(O)CCCCCCCOc1nc(-c2ccccc2)c(-c2ccccc2)n1-c1ccccc1 [octimibate sodium] | possessing anti-aggregatory activity |  | 
2 | O=C(O)CCCCCCCOc1nc(-c2ccccc2)c(-c2ccccc2)n1-c1ccccc1 [Octimibate] | broad spectrum inhibitor of platelet aggregation | 1 (≈ 2.2 µM) | 
3 | CCOC(=O)N(Cc1nc(-c2ccccc2)c(-c2ccccc2)o1)c1cccc(OCC(=O)O)c1 [Compound 13d, [3-[[(4,5-diphenyl-2-oxazolyl)methyl](ethoxycarbonyl)amino]phenoxy]acetic acid] |  |  | four times as potent
